Values after ≈ are worked out from the molar mass of the structure shown.

This is an account of results in US10582707B2, “Antimicrobial antibacterial and spore germination inhibiting activity from an avocado extract enriched in bioactive compounds” (priority 2010, dated 2020).

In series [1] the test system is vegetative cells of Listeria monocytogenes. Put plainly: Disc inhibition zone, Listeria monocytogenes at refrigeration and optimum temperature. It counts as cell-based. The following applies: 0.5 mg/ml.
Series [2] has as its system Clostridium sporogenes (ATCC 7955) heat shocked spores. Put plainly: microbe, parasite or virus in culture. Format: cell-based. Conditions: ATCC7955, isolated compounds at 0.5 mg/ml, read-out: Disc Inhibition Zone, Heat Shocked Spores. As to the method:
(§1) For the antibacterial evaluations, adjusted solutions (5 μL) were transferred to sterile 6-mm diameter discs made from Whatman no. 1 filter paper, so that after solvent evaporation each disc contained 12.5 μg of solids from the enriched avocado seed extract. Experimental controls were treated under the same conditions that the extracts and included negative control discs that contained 5 μL of acetone, and for positive control discs 5 μL of a nisin solution (30 mg/ml in sterile water) were added to provide a residual concentration of 150 μg of nisin in each disc. All test discs were left for about 1-2 hr in a Biological Safety Cabinet to evaporate the solvent. Suspensions of about 0.1 optical density (at 600 nm) containing approximately 1 to 2×10^8 CFU/ml of Clostridium sporogenes (ATCC 7955) vegetative cells, isolated native spores or isolated heat shocked spores were prepared as described in official protocols of Health Canada (Food Directorate, 2010). Aliquots of the suspensions (100 μL) were transferred to Petri dishes containing 15 ml of solid medium (TPGY medium) and spread evenly with a sterile plastic rod. Four discs, each containing 12.5 μg of the test extract, and two more discs (one solvent blank and one nisin positive control) were placed each dish and incubated at 37° C. under anaerobic conditions. The diameter of the inhibition zones (cm) around the discs were measured after 36 hrs.

Series [3] concerns Clostridium sporogenes (ATCC 7955) vegetative cells. Put plainly: microbe, parasite or virus in culture. It counts as cell-based. Conditions: for zone of inhibition at 500 µg/mL: Clostridium sporogenes, ATCC7955, isolated compounds at 0.5 mg/ml, read-out: Disc Inhibition Zone, Vegetative Cells. As to the method: as §1
For series [4], the system named is Colletotrichum gloeosporioides. Conditions: cited from earlier work.
Series [5] deals with B. subtilis. Put plainly: Disc inhibition zone, B. subtilis vegetative cells. It counts as cell-based. The following applies: Bacillus subtilis, isolated compounds at 0.5 mg/ml, Table 9, read-out: Disc inhibition zone, B. Subtillis. As to the method: (§2) For the antibacterial evaluations, adjusted solutions (5 μL) were transferred to sterile 6-mm diameter discs made from Whatman no. 1 filter paper, so that after solvent evaporation each disc contained 12.5 μg of solids from the enriched avocado seed extract. […] All test discs were left for about 1-2 hr in a Biological Safety Cabinet to evaporate the solvent. Suspensions of about 0.1 optical density (at 600 nm) containing approximately 1 to 2×10^8 CFU/ml of Clostridium sporogenes (ATCC 7955) vegetative cells, isolated native spores or isolated heat shocked spores were prepared as described in official protocols of Health Canada (Food Directorate, 2010). Aliquots of the suspensions (100 μL) were transferred to Petri dishes containing 15 ml of solid medium (TPGY medium) and spread evenly with a sterile plastic rod. […] The diameter of the inhibition zones (cm) around the discs were measured after 36 hrs.
(§3) The fractions obtained from Normal phase FCPC, were then used to assess their antimicrobial activities against the growth of vegetative cells from S. aureus and B. subtilis.
(§4) In this example, the antimicrobial activities of the same isolated compounds described in Example 10 (Table 5) were tested against the growth of vegetative cells and heat shocked spores of C. sporogenes, and on vegetative cells of S. aureus, P. aeuroginosa, E. coli. and B. subtilis as previously described in Example 1, and at a concentration of 0.5 mg/ml.

Series [6] has as its system E. coli. Put plainly: Disc inhibition zone, E. coli vegetative cells. Format: cell-based. The following applies: isolated compounds at 0.5 mg/ml, Table 9; for zone of inhibition at 500 µg/mL: Escherichia coli. The procedure: as §1
(§5) In this example, the antimicrobial activities of the same isolated compounds described in Example 10 (Table 5) were tested against the growth of vegetative cells and heat shocked spores of C. sporogenes, and on vegetative cells of S. aureus, P. aeuroginosa, E. coli. and B. subtilis as previously described in Example 1, and at a concentration of 0.5 mg/ml. […] Since it has been reported that persin is able to inhibit fungi spore germination (Prusky et al., 1982), and in the present experiment it seems to have the lowest activity, it can be assumed that the other bioactive compound would have a higher activity against fungi spore.

For series [7], the system named is heat shocked spores from C. sporogenes. Put plainly: MIC and MBC, heat shocked spores. It counts as cell-based. The following applies: Clostridium sporogenes, Example 11 method (Tables 6 and 10). As to the method: In order to further characterize the antibacterial activities of the fractions with the highest activity, it was important to determine their minimum inhibitory concentration (MIC), defined as the lowest concentration of an antimicrobial that will inhibit the visible growth of a microorganism after overnight incubation. […] But in the case of heat-shocked spores, the differences between nisin and the fractions with Kd of 0.4 were less pronounced, but still presented the desired inhibitory properties against spore germination.
In general terms, MIC is defined as the lowest concentration of an antimicrobial that will inhibit the visible growth of a microorganism after overnight incubation. While the MBC is the lowest concentration of the antimicrobial that will prevent the growth of a microorganism after subculture to fresh agar media free from the antibiotic or antimicrobial agent. The pool of active the fractions was tested at concentrations ranging from 0.005 to 2.5 mg/ml and nisin was used as control.

Series [8] has as its system P. aeuroginosa. Put plainly: Disc inhibition zone, P. aeuroginosa vegetative cells. Format: cell-based. The following applies: isolated compounds at 0.5 mg/ml, Table 9. As to the method:
as §1, §5

Series [9] concerns S. aureus. Put plainly: Disc inhibition zone, S. aureus vegetative cells. Format: cell-based. Conditions: isolated compounds at 0.5 mg/ml, Table 9; for zone of inhibition at 500 µg/mL: Staphylococcus aureus. As to the method: as §2, §3, §4
Series [10] deals with lactating mammary gland and myocardial fibers of mice. The following applies: cited from earlier work.
The subject of series [11] is Spodoptera exigua. Conditions: in vivo; cited from earlier work.
Series [12] deals with silkworm larvae Bombyx mori L. The following applies: in vivo; cited from earlier work.

`C=C/C=C/CCCCCCCCCCCC(=O)C[C@@H](O)COC(C)=O` [Compound 5, (2R, 16E)-1-acetoxy-2-hydroxy-4-oxo-nonadeca-16,18-diene]: the zone of inhibition at 500 µg/mL in series [1] (37° C, 48 hours) was found to be 0 mm; in [1] (480 h, 4° C., 20 days) it was 0 mm; in [2] it was 11 mm; in series [3] it was 10 mm.
`C=CCCCCCCCCCCC[C@H](O)C[C@H](O)COC(C)=O` [Compound 3, (2S, 4S)-1-acetoxy-2,4-dihydroxy-n-heptadeca-16-ene]: the zone of inhibition at 500 µg/mL in series [1] (37° C, 48 hours) is 0 mm; in series [1] (480 h, 4° C., 20 days) it was 0 mm; in series [2], 10 mm; in series [3], 11 mm. Also, in [4], the “bioactivity fold lower than that of persin” value is listed as 3 fold.
As to `CCCCC/C=C\C/C=C\CCCCC/C=C/C(=O)C[C@@H](O)COC(C)=O` (single isomer, unassigned) [Compound 7], the zone of inhibition at 500 µg/mL in series [1] (37° C, 48 hours) was 0 mm; in series [1] (480 h, 4° C., 20 days), 11 mm; in [5], 7 mm; in [2], 15 mm; in series [3], 16 mm; in series [6], 0 mm. Further, the zone of inhibition at 500 µg/mL in series [8] and in series [9] was 0 mm throughout. Further, the “Disc inhibition zone, E. coli” value in series [6] is reported as “did not show inhibitory activity”. Also, in series [7], the lowest concentration to inhibit growth (MIC) was 7.8 µg/mL (≈ 20.6 µM). Further, the “Disc inhibition zone, P. aeuroginosa” value in series [8] was “did not show inhibitory activity”. For the same compound, in [9], the “Disc inhibition zone, S. aureus” value was “did not show inhibitory activity”.
For the compound `CCCCC/C=C\C/C=C\CCCCCCCC(=O)C[C@@H](O)COC(C)=O` [Compound 9B, (R, 12Z, 15Z)-1-acetoxy-2-hydroxy-4-oxo-heneicosa-12,15-diene], the zone of inhibition at 500 µg/mL worked out at 0 mm in series [1] (37° C, 48 hours); 0 mm in series [1] (480 h, 4° C., 20 days); 6 mm in series [2]; 10 mm in series [3]. Also, the “concentration inhibiting fungi spore germination completely” value in series [4] was 790 µg/mL. Besides, in series [10], the “dose rate inducing lactating mammary gland necrosis” value was 60 to 100 mg/kg. Moreover, the “doses at which necrosis of myocardial fibers may occur” value in series [10] is recorded as “above 100 mg/kg”. Besides, in [3] (lack of C5-C6 double bond, 0.5 mg/ml), the “antimicrobial activity reduced compared with persenone A” value is listed as 37.5%. Further, in [11], the “concentration of diet with inhibitory effects on feeding” value is 400 µg/g. In series [11], the “concentration of diet with inhibitory effects on larval growth” value was 200 µg/g. Also, the “concentration in the artificial diet inhibiting larval feeding” value in [12] is no less than 200 µg/g.
On to `CCCCCCCCCCCCC/C=C/C(=O)C[C@@H](O)COC(C)=O` [Compound 9A, (5E)-1-acetoxy-2-hydroxy-5-nonadecen-4-one], for which the zone of inhibition at 500 µg/mL in series [1] (37° C, 48 hours) turned out to be 0 mm; in series [1] (480 h, 4° C., 20 days) it was 10 mm; in series [5] it was 0 mm; in [2], 17 mm; in series [3], 19 mm; in series [6], 0 mm. The zone of inhibition at 500 µg/mL in [8] and in series [9] was 0 mm throughout. Further, the “Disc inhibition zone, E. coli” value in series [6] is “did not show inhibitory activity”. Besides, the lowest concentration to inhibit growth in [7] (MIC) was 7.8 µg/mL (≈ 22 µM). Moreover, the “Disc inhibition zone, P. aeuroginosa” value in series [8] is “did not show inhibitory activity”. Besides, the “Disc inhibition zone, S. aureus” value in series [9] is “did not show inhibitory activity”.
Consider `CC/C=C/CCCCCCCCC/C=C/C(=O)C[C@@H](O)COC(C)=O` (single isomer, unassigned) [Compound 6], for which the zone of inhibition at 500 µg/mL in series [1] (37° C, 48 hours) is 0 mm; in [1] (480 h, 4° C., 20 days), 11 mm; in [5] it was 13 mm; in series [2] it was 17 mm; in series [3], 19 mm; in series [6] it was 0 mm. Besides, the zone of inhibition at 500 µg/mL in series [8] and in series [9] was 0 mm in each case. In [6], the “Disc inhibition zone, E. coli” value is given as “did not show inhibitory activity”. 15.6 µg/mL (≈ 44.3 µM) was the least that counted as inhibitory in [7] (MIC). In addition, in series [8], the “Disc inhibition zone, P. aeuroginosa” value was “did not show inhibitory activity”. In addition, the “Disc inhibition zone, S. aureus” value in [9] is “did not show inhibitory activity”.
